This is an account of results in the SangsterLogP compilation.

Turning to `CCCCCCCCCC(=O)OC`, the logP was determined as 4.42. With `CCCCCCCCCCCCCCCC(=O)OC` the figure was 7.38; with `CCCCCCCCCCCC(=O)OCC`, 5.71.

`CCCCCCCCCCCC(=O)OCC(CC)CCCC` (stereo not given) yielded a logP of 8.03. In the case of `CCCCCCCCCCCCCCCCCC(=O)OC` it was 8.35; in that of `CCCCCCCCCCCCCC(=O)OC`, 6.41. With `CCCCCCCCCCCC(=O)OCCCC` the figure was 6.51; with `CCCCCCCCCCCC(=O)OCCC`, 6.11; with `CCCCCCCCCCCC(=O)OC`, 5.41.

`CCCCCCCCCCCCCCCCCCCC(=O)OC` came in with a logP of 9.3. In the case of `CC/C=C\C/C=C\C/C=C\CCCCCCCC(=O)OC` it was 6.29. The compound `CCCCCCCC/C=C\CCCCCCCC(=O)OC` returned a logP of 7.45.

`CCCCCCCC/C=C\CCCCCCCCCCCC(=O)OC` registered a logP of 9.32.

As for `CCCCC/C=C\C/C=C\CCCCCCCC(=O)OC`, the logP was 6.82. On to `CCCCCCCCCCCCCCCCCCCCCC(=O)OC`, for which the logP worked out at 10.2.

Broadly, the logP is a log measure of how a compound divides between an organic and an aqueous phase.
